Ends that are not written are not given here.

This is an account of results in patent publication US6423727B1, “Certain thiol inhibitors of endothelin-converting enzyme” (Novartis AG, priority 1998, dated 2002).

The first data set has as its target rabbit antibodies that recognize specifically the carboxyl terminal tryptophan of ET-1. As to the kind of experiment: radioimmunoassay: displacement of [125I]ET-1 binding to the antibodies. Particulars: mean±SEM, n=3-5; 4° C. overnight. Here is the method:
Diluted samples (200 μL) obtained from the above enzyme assay are incubated at 4° C. overnight with 25 μL each of [^125I]ET-1 (10,000 cpm/tube) and 1:20,000-fold diluted rabbit antibodies that recognize specifically the carboxyl terminal tryptophan of ET-1. Goat anti-rabbit antibodies coupled to magnetic beads (70 μg) are then added to each tube, and the reaction mixture is further incubated for 30 min at room temperature. The beads are pelleted using a magnetic rack. The supernatant is decanted, and the radioactivity in the pellet is counted in a gamma counter. Total and nonspecific binding are measured in the absence of nonradioactive ET-1 and anti-ET antibodies, respectively.
Background: Loss of bound radioactivity is the signal in a displacement assay; it reports binding, not function.
As for “ET-1: endothelin-1, formed from big ET-1 by ECE; nonradioactive competitor in the radioimmunoassay”, the “IC50 for displacement of [125I]ET-1 binding to the antibodies” value was found to be 21 ± 2 fmol. On the same count and under the same terms, the result for “big ET-1: Human big ET-1, the ECE substrate used in the enzyme assay (CSCSSLMDKECVYFCHLDIIWVNTPEHVVPYGLGSPRS; ends and bridges not checked; cysteine pairing not given here; UniProt P05305 53-90, looked up)” reads 260,000±66,000 fmol.

System in the next data set: not given
Assay: not given
Conditions: not given
In general, melting point refers to the temperature of the solid-liquid transition. In the case of `O=C(NC1(C(=O)NC(Cc2ccc(C3CCCCC3)cc2)C(=O)O)CCCC1)C(S)Cc1ccccc1` (stereo not shown) [3-(4-Cyclohexyl-phenyl)-2-{[1-(2-mercapto-3-phenyl-propionylamino)-cyclopentanecarbonyl]-amino}-propionic acid], the melting point was in the range of 172 to 175 °C. As for `Cc1c(CC(NC(=O)C2(NC(=O)C(S)CC(C)C)CCCC2)C(=O)O)oc2c(F)c(F)c(F)c(F)c12` (stereo not shown) [Example 13(a), 2-{[1-(2-Mercapto-4-methyl-pentanoylamino)-cyclopentanecarbonyl]-amino}-3-(4,5,6,7-tetrafluoro-3-methyl-benzofuran-2-yl)-propionic acid], the melting point lay within 115 to 117 °C. Same read-out and setting: to `CC(C)CC(S)C(=O)NC1(C(=O)NC(Cc2c[nH]c3ccccc23)C(=O)O)CCCC1` (stereo not shown) [Example 13(b), 3-(1H-Indol-3-yl)-2-{[1-(2-mercapto-4-methyl-pentanoylamino)-cyclopentanecarbonyl]-amino}-propionic acid] belongs 116 to 118 °C; to `CCCC(S)C(=O)NC1(C(=O)NC(Cc2c[nH]c3ccccc23)C(=O)O)CCCC1` (stereo not shown) [Example 13(c), 3-(1H-Indol-3-yl)-2-{[1-(2-mercapto-pentanoylamino)-cyclopentanecarbonyl]-amino}-propionic acid], 102 to 105 °C; to `CC(C)CC(S)C(=O)NC1(C(=O)NC(Cc2csc3ccccc23)C(=O)O)CCCC1` (stereo not shown) [Example 13(e), 3-Benzo[b]thiophen-3-yl-2-{[1-(2-mercapto4-methyl-pentanoylamino)-cyclopentanecarbonyl]-amino}-propionic acid], 135 to 137 °C.
